Laboratory results reported in PubChem BioAssay (NCI).
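Briefly, cells in 96-well plates were exposed to five compound concentrations for 48 h, and endpoints were estimated by linear interpolation. GI50 marks 50% less growth. TGI denotes the concentration required for complete inhibition of growth.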

Assays:
Assay in all cases: DTP human tumour cell line panel, 48 h
SF-295 CNS = test system: SF-295 CNS
TK-10 renal = test system: TK-10 renal
RXF 393 renal = test system: RXF 393 renal
HCT-116 colon = test system: HCT-116 colon
KM12 colon = test system: KM12 colon
UACC-62 melanoma = test system: UACC-62 melanoma
U251 CNS = test system: U251 CNS
SF-539 CNS = test system: SF-539 CNS
MDA-MB-435 = test system: MDA-MB-435
SK-MEL-2 melanoma = test system: SK-MEL-2 melanoma
UACC-257 melanoma = test system: UACC-257 melanoma
HL-60(TB) leukemia = test system: HL-60(TB) leukemia
RPMI-8226 leukemia = test system: RPMI-8226 leukemia
NCI-H23 lung = test system: NCI-H23 lung
M14 melanoma = test system: M14 melanoma
NCI/ADR-RES ovarian = test system: NCI/ADR-RES ovarian
NCI-H460 lung = test system: NCI-H460 lung
MDA-MB-231 breast = test system: MDA-MB-231 breast
SW-620 colon = test system: SW-620 colon
MCF7 breast = test system: MCF7 breast
786-0 renal = test system: 786-0 renal
CCRF-CEM leukemia = test system: CCRF-CEM leukemia
SN12C renal = test system: SN12C renal
PC-3 prostate = test system: PC-3 prostate
HOP-92 NSCLC = test system: HOP-92 NSCLC
SNB-19 CNS = test system: SNB-19 CNS
CAKI-1 renal = test system: CAKI-1 renal
DU-145 prostate = test system: DU-145 prostate
HCC-2998 colon = test system: HCC-2998 colon
K-562 leukemia = test system: K-562 leukemia
COLO 205 colon = test system: COLO 205 colon
HCT-15 colon = test system: HCT-15 colon
A549 NSCLC = test system: A549 NSCLC
SNB-75 CNS = test system: SNB-75 CNS
OVCAR-5 ovarian = test system: OVCAR-5 ovarian
SK-MEL-5 melanoma = test system: SK-MEL-5 melanoma
OVCAR-8 ovarian = test system: OVCAR-8 ovarian
SF-268 CNS = test system: SF-268 CNS
T-47D breast = test system: T-47D breast
NCI-H522 lung = test system: NCI-H522 lung
SK-OV-3 ovarian = test system: SK-OV-3 ovarian
EKVX NSCLC = test system: EKVX NSCLC
MALME-3M melanoma = test system: MALME-3M melanoma
NCI-H226 lung = test system: NCI-H226 lung
ACHN renal = test system: ACHN renal
MOLT-4 leukemia = test system: MOLT-4 leukemia
HT29 colon = test system: HT29 colon
UO-31 renal = test system: UO-31 renal
SK-MEL-28 melanoma = test system: SK-MEL-28 melanoma
HOP-62 NSCLC = test system: HOP-62 NSCLC
HS 578T breast = test system: HS 578T breast
A498 renal = test system: A498 renal
BT-549 breast = test system: BT-549 breast
OVCAR-4 ovarian = test system: OVCAR-4 ovarian
IGROV1 ovarian = test system: IGROV1 ovarian
SR leukemia = test system: SR leukemia

Fc1ccc(-c2cc3nc(C(Cl)Cl)nc(-c4cccs4)n3n2)cc1 was tested, and the GI50 (SF-295 CNS) was 0.949 µM, the TGI (SF-295 CNS) was 4.79 µM and the GI50 (TK-10 renal) was 3.14 µM. For the same compound, the TGI (TK-10 renal) was 6.88 µM, the GI50 (RXF 393 renal) was 0.403 µM and the TGI (RXF 393 renal) was 1.71 µM. The GI50 (HCT-116 colon) was 1.53 µM, the TGI (HCT-116 colon) was > 100 µM and the GI50 (KM12 colon) was 2.2 µM. It also gave a TGI (KM12 colon) of 17.5 µM, a GI50 (UACC-62 melanoma) of 2.71 µM and a TGI (UACC-62 melanoma) of 15 µM. The GI50 (U251 CNS) was 0.319 µM, the TGI (U251 CNS) was 1.98 µM and the GI50 (SF-539 CNS) was 1.05 µM. For the same compound, the TGI (SF-539 CNS) was 2.89 µM, the GI50 (MDA-MB-435) was 1.63 µM and the TGI (MDA-MB-435) was 3.45 µM. For the same compound, the GI50 (SK-MEL-2 melanoma) was 3.1 µM, the TGI (SK-MEL-2 melanoma) was 9.66 µM and the GI50 (UACC-257 melanoma) was 3.04 µM. It also gave a TGI (UACC-257 melanoma) of 9.15 µM, a GI50 (HL-60(TB) leukemia) of 0.29 µM and a TGI (HL-60(TB) leukemia) of 2.23 µM. For the same compound, the GI50 (RPMI-8226 leukemia) was 0.847 µM, the TGI (RPMI-8226 leukemia) was 5.79 µM and the GI50 (NCI-H23 lung) was 1.47 µM. For the same compound, the TGI (NCI-H23 lung) was 4 µM, the GI50 (M14 melanoma) was 4.5 µM and the TGI (M14 melanoma) was > 100 µM. It also gave a GI50 (NCI/ADR-RES ovarian) of 1.17 µM, a TGI (NCI/ADR-RES ovarian) of 5.66 µM and a GI50 (NCI-H460 lung) of 0.309 µM. The TGI (NCI-H460 lung) was 1.19 µM, the GI50 (MDA-MB-231 breast) was 0.505 µM and the TGI (MDA-MB-231 breast) was 3.1 µM. It also gave a GI50 (SW-620 colon) of 1.18 µM, a TGI (SW-620 colon) of 8.61 µM and a GI50 (MCF7 breast) of 0.369 µM. The TGI (MCF7 breast) was 4.31 µM, the GI50 (786-0 renal) was 2.31 µM and the TGI (786-0 renal) was 7.33 µM. For the same compound, the GI50 (CCRF-CEM leukemia) was 19.6 µM, the TGI (CCRF-CEM leukemia) was > 100 µM and the GI50 (SN12C renal) was 36.1 µM. For the same compound, the TGI (SN12C renal) was > 100 µM, the GI50 (PC-3 prostate) was 1.19 µM and the TGI (PC-3 prostate) was 4.67 µM. For the same compound, the GI50 (HOP-92 NSCLC) was 0.537 µM, the TGI (HOP-92 NSCLC) was 2.96 µM and the GI50 (SNB-19 CNS) was 0.664 µM. The TGI (SNB-19 CNS) was 4.4 µM, the GI50 (CAKI-1 renal) was 1.22 µM and the TGI (CAKI-1 renal) was 5.04 µM. The GI50 (DU-145 prostate) was 0.31 µM, the TGI (DU-145 prostate) was 0.888 µM and the GI50 (HCC-2998 colon) was 0.41 µM. The TGI (HCC-2998 colon) was 1.59 µM, the GI50 (K-562 leukemia) was 2.53 µM and the TGI (K-562 leukemia) was > 100 µM. It also gave a GI50 (COLO 205 colon) of 0.805 µM, a TGI (COLO 205 colon) of 3.12 µM and a GI50 (HCT-15 colon) of 1.1 µM. It also gave a TGI (HCT-15 colon) of 3.71 µM, a GI50 (A549 NSCLC) of 0.745 µM and a TGI (A549 NSCLC) of 4.92 µM. It also gave a GI50 (SNB-75 CNS) of 0.284 µM, a TGI (SNB-75 CNS) of 2.81 µM and a GI50 (OVCAR-5 ovarian) of 1.75 µM. The TGI (OVCAR-5 ovarian) was 5.31 µM, the GI50 (SK-MEL-5 melanoma) was > 100 µM and the TGI (SK-MEL-5 melanoma) was > 100 µM. For the same compound, the GI50 (OVCAR-8 ovarian) was 1.21 µM, the TGI (OVCAR-8 ovarian) was > 100 µM and the GI50 (SF-268 CNS) was 1.61 µM. It also gave a TGI (SF-268 CNS) of 7.99 µM, a GI50 (T-47D breast) of 1.6 µM and a TGI (T-47D breast) of 7.24 µM. For the same compound, the GI50 (NCI-H522 lung) was > 100 µM, the TGI (NCI-H522 lung) was > 100 µM and the GI50 (SK-OV-3 ovarian) was 2.21 µM. The TGI (SK-OV-3 ovarian) was 13.8 µM, the GI50 (EKVX NSCLC) was 1.12 µM and the TGI (EKVX NSCLC) was 4.07 µM. For the same compound, the GI50 (MALME-3M melanoma) was 7.5 µM, the TGI (MALME-3M melanoma) was > 100 µM and the GI50 (NCI-H226 lung) was > 100 µM. The TGI (NCI-H226 lung) was > 100 µM, the GI50 (ACHN renal) was 0.301 µM and the TGI (ACHN renal) was 1.21 µM. The GI50 (MOLT-4 leukemia) was 3.56 µM, the TGI (MOLT-4 leukemia) was > 100 µM and the GI50 (HT29 colon) was 0.356 µM. It also gave a TGI (HT29 colon) of 2.05 µM, a GI50 (UO-31 renal) of 1.26 µM and a TGI (UO-31 renal) of 5.5 µM. For the same compound, the GI50 (SK-MEL-28 melanoma) was 1.86 µM, the TGI (SK-MEL-28 melanoma) was 3.59 µM and the GI50 (HOP-62 NSCLC) was 0.454 µM. It also gave a TGI (HOP-62 NSCLC) of 3.46 µM, a GI50 (HS 578T breast) of 1.95 µM and a TGI (HS 578T breast) of 7.03 µM. For the same compound, the GI50 (A498 renal) was 1.02 µM, the TGI (A498 renal) was 2.36 µM and the GI50 (BT-549 breast) was > 100 µM. For the same compound, the TGI (BT-549 breast) was > 100 µM, the GI50 (OVCAR-4 ovarian) was 2.39 µM and the TGI (OVCAR-4 ovarian) was 6.22 µM. For the same compound, the GI50 (IGROV1 ovarian) was 3.07 µM, the TGI (IGROV1 ovarian) was > 100 µM and the GI50 (SR leukemia) was 3.7 µM. For the same compound, the TGI (SR leukemia) was > 100 µM.
